{"source": "PubChem BioAssay (NCI)", "assay_in_all_cases": "NCI anticancer screen, dose series, 48 h", "key": {"[1]": {"test_system": "HOP-92 NSCLC"}, "[2]": {"test_system": "KM12 colon"}, "[3]": {"test_system": "NCI-H460 lung"}, "[4]": {"test_system": "HCC-2998 colon"}, "[5]": {"test_system": "MDA-MB-435"}, "[6]": {"test_system": "SR leukemia"}, "[7]": {"test_system": "HCT-15 colon"}, "[8]": {"test_system": "T-47D breast"}, "[9]": {"test_system": "NCI-H226 lung"}, "[10]": {"test_system": "XF 498 CNS"}, "[11]": {"test_system": "SK-OV-3 ovarian"}, "[12]": {"test_system": "HS 578T breast"}, "[13]": {"test_system": "MALME-3M melanoma"}, "[14]": {"test_system": "M14 melanoma"}, "[15]": {"test_system": "ACHN renal"}, "[16]": {"test_system": "OVCAR-3 ovarian"}, "[17]": {"test_system": "CAKI-1 renal"}}, "note": "Several values for one entry are separate records, joined by “and”; a condition that tells them apart may be missing. Identical values can stand only once.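 Compound exposure: 48 hours, 5 concentrations, 96-well plates. GI50 is the concentration that inhibits growth by half. The concentration for full growth arrest is given as TGI.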"}
{"molecule": "O=CC(NC(=O)N(CCCl)N=O)C(O)C(O)C(O)CO", "note": "(configuration not stated)", "values": [{"measurement": "GI50", "setting": "[1]", "value": "377 µM and > 1250 µM and 362 µM"}, {"measurement": "TGI", "setting": "[1]", "value": "625 µM and > 1250 µM and > 1230 µM"}, {"measurement": "GI50", "setting": "[2]", "value": 541, "unit": "µM"}, {"measurement": "TGI", "setting": "[2]", "value": "625 µM and > 1250 µM"}, {"measurement": "GI50", "setting": "[3]", "value": "208 µM and 401 µM"}, {"measurement": "TGI", "setting": "[3]", "value": "625 µM and > 1250 µM and > 1210 µM"}, {"measurement": "GI50", "setting": "[4]", "value": "> 625", "unit": "µM"}, {"measurement": "TGI", "setting": "[4]", "value": "> 1250", "unit": "µM"}, {"measurement": "TGI", "setting": "[5]", "value": "> 1250", "unit": "µM"}, {"measurement": "TGI", "setting": "[6]", "value": "> 623", "unit": "µM"}, {"measurement": "GI50", "setting": "[7]", "value": "> 625", "unit": "µM"}, {"measurement": "TGI", "setting": "[7]", "value": "> 1250", "unit": "µM"}, {"measurement": "TGI", "setting": "[8]", "value": "> 1250", "unit": "µM"}, {"measurement": "GI50", "setting": "[9]", "value": 73.1, "unit": "µM"}, {"measurement": "TGI", "setting": "[9]", "value": "625 µM and > 1250 µM"}, {"measurement": "TGI", "setting": "[10]", "value": "415 µM and > 1250 µM"}, {"measurement": "GI50", "setting": "[11]", "value": 279, "unit": "µM"}, {"measurement": "TGI", "setting": "[11]", "value": "576 µM and > 1250 µM"}, {"measurement": "TGI", "setting": "[12]", "value": "> 1250", "unit": "µM"}, {"measurement": "GI50", "setting": "[13]", "value": 131, "unit": "µM"}, {"measurement": "TGI", "setting": "[13]", "value": "543 µM and 767 µM"}, {"measurement": "TGI", "setting": "[14]", "value": "> 1250", "unit": "µM"}, {"measurement": "TGI", "setting": "[15]", "value": "> 1250", "unit": "µM"}, {"measurement": "GI50", "setting": "[16]", "value": "> 625", "unit": "µM"}, {"measurement": "TGI", "setting": "[16]", "value": "> 1250", "unit": "µM"}, {"measurement": "GI50", "setting": "[17]", "value": 269, "unit": "µM"}, {"measurement": "TGI", "setting": "[17]", "value": "625 µM and > 1250 µM"}]}
